Assay results reported in article PMC7914367, “Dual-ligand supramolecular nanofibers inspired by the renin-angiotensin system for the targeting and synergistic therapy of myocardial infarction” (Theranostics, 2021).
Peptide text beside a SMILES is read from it. * marks the point of attachment. X1 = CN1/C(=C/C=C/C=C/C2=[N+](CCCCCC(=O)*)c3ccc4ccccc4c3C2(C)C)C(C)(C)c2c1ccc1ccccc21

Key:
MI mouse model [1] = assay: Masson's trichrome staining, infarct size; format: in vivo, C57BL/6 mice; details: MI mice, 4 weeks, collagen area/LV area, MI group 36.60%, vehicle 1219.84 μg/kg, n = 5
Experimental: (§1) Adult male C57BL/6 mice (20-30 g, 8-10 week) were purchased from the laboratory animal center of Southern Medical University, China. The protocols were approved according to the Zhujiang Hospital of Southern Medical University animal care and use committee guidelines, which conform to the guide for the care and use of laboratory animals published by the US National Institutes of Health (8th edition, 2011). […] Next, 100 µL of different drugs were administered intravenously through tail vein injection every 2 days for 3 weeks, while the mice in the Sham and MI groups were treated with an equal volume of PBS.
The mice were sacrificed at 4 weeks after the induction of MI, and hearts and major organs were harvested and fixed in 4% paraformaldehyde overnight and embedded in paraffin. The hearts were sectioned to 5 µm along the short axis transversely across the infarct zone. The major organs were sectioned to 5 µm along the short axis. Following deparaffinization and dehydration, the samples underwent H&E and Masson's trichrome staining. The sections were observed under a microscope to evaluate the therapeutic effect and safety of the drugs. The collagen and LV areas were measured using the Image-Pro Plus software (version 6.0; Media Cybernetics, Silver Spring, MD, USA). Infarct size (%) was calculated as the ratio of the collagen area to the LV area.

NRCMs [2] = assay: Intracellular ROS with DHE probe; format: cell-based, rat; details: OGD NRCMs, 10 μM; OGD group 5.72-fold; n = 3
Experimental: The cells were counterstained with DAPI and were observed under a fluorescence microscope (details in Supporting Information). […]
(§2) manufacturer ’s protocol. Cells were then stained with DAPI. The TUNEL positive cells were observed by the fluorescence microscope (λexc = 488 nm for TUNEL, λexc = 405 […]
Intracellular ROS was quantified with dihydroethidium (DHE). After incubated with different treatments under OGD condition, NRCMs were then cultured with DMEM medium containing […] of DHE for 30 min at 37 ℃ and then wash ed twice with PBS. Nucleuses of NRCMs were dyed by Hoechst 33342 stain solution for 30 min at 37 °C. Intracellular ROS were detected by the fluorescence microscope (λexc = 532 nm for DHE, λexc = 405 nm for Hoechst 33342).
Adult male C57BL/6 mice (20-30g, 8-10 weeks old) were purchased from the laboratory animal center of Southern Medical University. For the MI model, mice were subjected to permanent l eft anterior descending (LAD) ligation as described previously. In brief, the animals were anesthetized using 1.5% sodium pentobarbital (50 mg/kg) through intraperitoneal i njection, and mice were ventilated with a rodent ventilator subsequently. We exposed mice hearts by the fourth intercostal space incision and a subsequent pericardium removal. The LAD was ligated using an 8-0-prolene suture permanently to perform MI generation. […]

MI mouse model [3] = assay: Echocardiography post-MI; format: in vivo, C57BL/6 mice; details: MI mice, 4th week, tail vein every 2 days (TDCNfs 1084.16, T+A 328.96+576, Tel 328.96, Ang1-7 576 μg/kg); MI group approx 16%; n = 5
Experimental: as §1
Twenty-eight days after surgery, the mice were anesthetized through the inhalation of isoflurane (1-1.5%) in O2 and echocardiographic examination was performed using a Vevo 2100 System equipped with a 30 MHz transducer (FUJIFILM Visual Sonics, Canada). The LVEDD, LVESD, LVEFs, and LVFS were measured. All measurements were repeated for at least three consecutive pulsation cycles and the data were averaged for statistical analysis. […]
as §2
(§3) Intracellular ROS was quantified with dihydroethidium (DHE). […] Intracellular ROS were detected by the fluorescence microscope (λexc = 532 nm for DHE, λexc = 405 nm for Hoechst 33342). […]

[4] = system: p-AKT, Bax/Bcl-2, cleaved caspase-3; assay: Western blot of apoptosis-related proteins in OGD NRCMs; format: cell-based, rat; details: vs OGD group, n = 3
Experimental: AKT, p-AKT, Bax, Bcl-2, cleaved caspase-3, P65, TGF-β1, Histone3, AT1R, GAPDH were quantified by western blot analysis. Protein concentration was determined using the bicinchoninic acid (BCA) method. SDS-PAGE was conducted to separate the proteins in each sample (30-50 µg of protein per lane), which were subsequently transferred to a PVDF membrane. The membranes were treated with blocking buffer for 2 h at room temperature and then incubated overnight with primary antibodies at 4 °C. The primary antibodies used included anti-Phospho-AKT (1:1000 dilution), anti-AKT (1:1000 dilution), anti-caspase-3 (1:1000 dilution), anti-Bcl-2 (1:100 dilution), anti-Bax (1:1000 dilution), anti-P65 (1:800 dilution), anti-TGF-β1 (1:1000 dilution), anti-Histone 3 (1:1000 dilution) and anti-AGTR1 (1:1000 dilution). The results were normalized by comparison to parallel western blots for glyceraldehyde 3-phosphate dehydrogenase (GAPDH, 1:8000 dilution). Optical density was measured using an image processing analysis program.

NRCMs [5] = assay: TUNEL staining of OGD NRCMs; format: cell-based, rat; details: 10 μM, 2-3 h, OGD group 26.70%, n = 3
NRCFs = assay: Conditioned medium interference experiments (TGF-β1 in CM, α-SMA in NRCFs); format: cell-based, rat; details: NRCFs cultured 24 h with conditioned medium of pretreated OGD NRCMs, immunofluorescence, n = 3
Experimental: Next, the cells were blocked by incubating with goat serum for 30 min and incubated with primary antibodies overnight at 4 °C. The primary antibodies used here included anti-AT1R (1:200 dilution), anti-cTNT (1:500 dilution), anti-P65 (1:800 dilution), and anti‐α-SMA (1:400 dilution). The cells were incubated with FITC-labeled Goat Anti-Rabbit IgG (1:200 dilution) or Cy3-labeled Goat Anti-Mouse IgG (1:200 dilution) for 2 h at room temperature. The cells were counterstained with DAPI and imaged using a fluorescence microscope (Leica Dmi8, Germany).
CM from untreated or compound-treated cells were produced as follows. NRCMs were seeded in 35 mm culture dishes at 1 × 10^6 cells per well and incubated in growth medium containing different compounds or in media devoid of compounds for 12 h. Next, the media were replaced with serum-free medium, and the cells were cultured under hypoxia for 6 h. The CM was collected and centrifuged to culture NRCFs after a 12 h starvation period. Immunofluorescence of α-SMA was analyzed as per protocol after 24 h.
(§4) The serum and CM were collected at the indicated time points from the different groups of mice. The levels of TNF-α, IL-6, ALT, Cre, and TGF-β1 were measured using ELISA kits according to the manufacturer's protocol. The absorbance was measured at 450 nm using a microplate reader.

MI mouse model [6] = assay: In vivo mechanism: caspase-3 IHC, α-SMA immunofluorescence, type I collagen, TGF-β1, serum cytokines; set-up: species or system C57BL/6 mice; details: MI mice, n = 5
Experimental: Frozen sections were prepared in vivo, as described previously. For drugs distribution, near-infrared laser imager (GE Amersham Typhoon, Sweden) was used to capture full cross section of hearts. For co-localization experiments, the mice hearts were dissected 24 h post-injection of drugs. Anti-AT1R primary antibody (1:200 dilution) was used as the primary antibody. For fibrosis investigation, the frozen sections were incubated with primary antibodies against α-SMA (1:400 dilution). The staining signals were visualized using FITC-labeled Goat Anti-Rabbit IgG (1:200 dilution) or Cy3-labeled Goat Anti-Rabbit IgG (1:200 dilution). The sections were counterstained with DAPI and examined under a laser confocal scanning microscope (Leica TCS SP8, Germany).
The heart tissues were fixed in 4% paraformaldehyde, dehydrated in ethanol, cleared in xylene, and embedded in paraffin. The samples were then cut into 6 μm sections on a microtome and deparaffinized. The sections were blocked by incubating with 1% BSA at room temperature for 30 min and then incubated overnight with anti-cleaved caspase-3 (1:700 dilution), anti-AT1R (1:100 dilution), anti-Collagen I (1:200 dilution) at 4 °C. Next, the sections were washed and incubated with secondary antibodies (1:500 dilution) at room temperature. The tissue sections were incubated with diaminobenzidine and counterstained with hematoxylin, dehydrated, and mounted before viewing under a microscope.
as §4

infarcted heart = system: infarcted heart; set-up: species or system C57BL/6 mice; details: mouse, in vivo
Experimental: ^Cy5.5TDCNfs, ^Cy5.5SAA1-7, and ^Cy5.5Ang1-7 were injected intravenously into the mice via tail vein at a dose of 0.2 mg. The images were captured at the prefixed time. Next, the mice were sacrificed to harvest their hearts and major organs. The samples were imaged at an excitation wavelength of 630 nm and an emission wavelength of 700 nm using an in vivo imaging system (FX PRO, BRUKER, Germany). The images were analyzed using the BRUKER Molecular Imaging Software. The targeting ability of compounds was defined by HTI = heart fluorescence emission/liver fluorescence emission.
Frozen sections were prepared in vivo, as described previously. For drugs distribution, near-infrared laser imager (GE Amersham Typhoon, Sweden) was used to capture full cross section of hearts. For co-localization experiments, the mice hearts were dissected 24 h post-injection of drugs. Anti-AT1R primary antibody (1:200 dilution) was used as the primary antibody. For fibrosis investigation, the frozen sections were incubated with primary antibodies against α-SMA (1:400 dilution). […]
manufacturer ’s protocol. […] The TUNEL positive cells were observed by the fluorescence microscope (λexc = 488 nm for TUNEL, λexc = 405 […]
as §3

Q: For `CCCc1nc2c(C)cc(-c3nc4ccccc4n3C)cc2n1Cc1ccc(-c2ccccc2C(=O)O)cc1` [Tel, telmisartan], which infarct size (MI mouse model [1]) is on record?
A: 25.80%

Q: What about the “fluorescence intensity of superoxide anion (DHE) compared to the control group” value (NRCMs [2]) of the same molecule?
A: 3.23 fold

Q: What about the “left ventricular ejection fractions (LVEFs)” value (MI mouse model [3]) of the same molecule?
A: 29.54%

Q: What about the “decrease of Bax/Bcl-2 value” [4] of the same molecule?
A: 76.3%

Q: What about the “increase of p-AKT expression” value [4] of the same molecule?
A: more than 10 fold

Q: What about the “TUNEL-positive NRCMs” value (NRCMs [5]) of the same molecule?
A: 17.62%

Q: What about the “reduction of α-SMA levels in NRCFs compared to the OGD group” value (NRCFs) of the same molecule?
A: 20.48%

Q: And the “α-SMA expression in the non-infarcted area” value (MI mouse model [6]; 4 weeks post-treatment, immunofluorescence)?
A: inhibited to a certain extent

Q: What about the “caspase-3 expression in infarct border zone” value (MI mouse model [6]; immunohistochemistry) of the same molecule?
A: reduced moderately

Q: With `CC[C@H](C)[C@H](NC(=O)[C@H](Cc1ccc(O)cc1)NC(=O)[C@@H](NC(=O)[C@H](CCCNC(=N)N)NC(=O)[C@H](CC(=O)O)NC(=O)CNC(=O)CCCCC[N+]1=C(/C=C/C=C/C=C2/N(C)c3ccc4ccccc4c3C2(C)C)C(C)(C)c2c1ccc1ccccc21)C(C)C)C(=O)N[C@@H](Cc1c[nH]cn1)C(=O)N1CCC[C@H]1C(=O)O` [Cy5.5Ang1-7] (X1-GDRVYIHP-OH) as the molecule, how does the “overlapping signals with AT1R in infarct zone compared with Cy5.5TDCNfs group” value (infarcted heart) read?
A: significantly lower
